{"source": "ChEMBL document CHEMBL1201862", "about": "“PubChem BioAssay data set” (2004)", "key": {"[1]": {"assay": "Luminescence Cell-Based Dose Confirmation HTS to Identify Activators of 5'UTR Stem-Loop Driven Alpha-Synuclein mRNA Translation in H4 Neuroglioblastoma Cells. [Related pubchem assays: 1829 (Project Summary), 1814 (Primary HTS)]", "assay_type": "functional"}, "H4": {"system": "H4", "assay": "Luminescence Cell-Based Dose Response HTS to Identify Activators of 5'UTR Stem-Loop Driven Prion Protein mRNA Translation in H4 Neuroglioblastoma Cells. [Related pubchem assays: 1829 (Project Summary), 1814 (Primary HTS)]", "assay_type": "functional", "conditions": "Homo sapiens"}, "[2]": {"assay": "Luminescence Cell-Based Dose Response HTS to Identify Activators of Luciferase Translation or Activity in H4 […] Cells. [Related pubchem assays: 1829 (Project Summary), 1814 (Primary HTS)]", "assay_type": "functional"}, "Cytochrome P450 2D6": {"biological_target": "Cytochrome P450 2D6 (Homo sapiens, UniProt P10635)", "sequence (P10635 whole entry)": "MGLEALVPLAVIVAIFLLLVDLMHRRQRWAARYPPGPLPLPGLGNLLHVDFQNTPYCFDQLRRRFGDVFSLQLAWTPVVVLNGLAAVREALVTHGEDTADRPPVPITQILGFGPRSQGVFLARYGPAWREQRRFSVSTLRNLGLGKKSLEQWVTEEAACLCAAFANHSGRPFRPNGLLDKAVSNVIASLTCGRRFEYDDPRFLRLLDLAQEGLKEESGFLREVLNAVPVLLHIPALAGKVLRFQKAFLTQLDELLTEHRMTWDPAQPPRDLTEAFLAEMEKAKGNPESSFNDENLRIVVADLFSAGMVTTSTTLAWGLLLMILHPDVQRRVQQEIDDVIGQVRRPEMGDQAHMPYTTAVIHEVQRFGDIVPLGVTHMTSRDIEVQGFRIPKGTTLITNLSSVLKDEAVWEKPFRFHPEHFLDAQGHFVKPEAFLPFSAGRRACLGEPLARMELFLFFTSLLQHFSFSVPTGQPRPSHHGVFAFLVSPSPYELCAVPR"}, "Cytochrome P450 2C19": {"biological_target": "Cytochrome P450 2C19 (Homo sapiens, UniProt P33261)", "sequence (P33261 whole entry)": "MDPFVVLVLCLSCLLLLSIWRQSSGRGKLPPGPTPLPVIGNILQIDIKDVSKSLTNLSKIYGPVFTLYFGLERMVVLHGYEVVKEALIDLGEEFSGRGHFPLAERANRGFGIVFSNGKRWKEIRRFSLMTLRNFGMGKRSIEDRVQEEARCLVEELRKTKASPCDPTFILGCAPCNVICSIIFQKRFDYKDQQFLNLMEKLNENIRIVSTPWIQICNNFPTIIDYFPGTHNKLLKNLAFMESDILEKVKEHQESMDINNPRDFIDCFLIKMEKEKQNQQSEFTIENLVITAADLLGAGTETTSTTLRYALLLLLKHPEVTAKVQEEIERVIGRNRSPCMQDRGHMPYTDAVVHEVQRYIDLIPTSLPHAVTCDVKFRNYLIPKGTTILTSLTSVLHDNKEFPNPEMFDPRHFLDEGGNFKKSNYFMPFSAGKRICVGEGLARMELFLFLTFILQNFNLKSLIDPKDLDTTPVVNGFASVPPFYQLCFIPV", "assay": "Cytochrome panel assay with activity outcomes. Panel member name: p450-cyp2c19 Compounds with AC50 equal or less than 10 uM are considered active", "assay_type": "functional", "conditions": "read-out: AC50"}, "Cytochrome P450 1A2": {"biological_target": "T1, Cytochrome P450 1A2 (Homo sapiens, UniProt P05177)", "T1 sequence (P05177 whole entry)": "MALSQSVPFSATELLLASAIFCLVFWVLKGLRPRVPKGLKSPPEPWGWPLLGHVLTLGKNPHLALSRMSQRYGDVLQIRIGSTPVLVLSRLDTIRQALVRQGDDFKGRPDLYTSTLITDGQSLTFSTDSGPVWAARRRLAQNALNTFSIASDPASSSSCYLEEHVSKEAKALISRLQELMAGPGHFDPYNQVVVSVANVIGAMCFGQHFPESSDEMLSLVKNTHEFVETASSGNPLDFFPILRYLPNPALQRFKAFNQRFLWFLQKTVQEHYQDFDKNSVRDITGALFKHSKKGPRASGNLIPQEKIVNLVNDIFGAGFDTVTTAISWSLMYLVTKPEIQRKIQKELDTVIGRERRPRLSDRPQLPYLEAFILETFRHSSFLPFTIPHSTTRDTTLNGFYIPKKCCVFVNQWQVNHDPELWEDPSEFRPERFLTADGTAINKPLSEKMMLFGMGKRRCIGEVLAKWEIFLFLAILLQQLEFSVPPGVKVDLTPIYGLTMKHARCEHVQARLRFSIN"}, "Cytochrome P450 2C9": {"biological_target": "Cytochrome P450 2C9 (Homo sapiens, UniProt P11712)", "sequence (P11712 whole entry)": "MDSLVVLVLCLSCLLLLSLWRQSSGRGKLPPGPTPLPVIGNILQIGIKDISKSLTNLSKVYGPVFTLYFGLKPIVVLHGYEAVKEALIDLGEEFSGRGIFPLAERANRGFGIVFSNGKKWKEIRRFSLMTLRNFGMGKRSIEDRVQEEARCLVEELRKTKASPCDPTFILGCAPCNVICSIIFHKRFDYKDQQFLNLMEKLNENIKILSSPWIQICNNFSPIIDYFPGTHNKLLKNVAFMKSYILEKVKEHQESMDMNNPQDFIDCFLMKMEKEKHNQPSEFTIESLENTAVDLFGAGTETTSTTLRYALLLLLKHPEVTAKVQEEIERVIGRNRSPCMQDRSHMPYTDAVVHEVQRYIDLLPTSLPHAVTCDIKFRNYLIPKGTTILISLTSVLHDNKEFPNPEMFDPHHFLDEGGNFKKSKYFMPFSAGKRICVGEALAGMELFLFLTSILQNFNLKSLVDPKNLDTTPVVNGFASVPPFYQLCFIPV"}, "Cytochrome P450 3A4": {"biological_target": "Cytochrome P450 3A4 (Homo sapiens, UniProt P08684)", "sequence (P08684 whole entry)": "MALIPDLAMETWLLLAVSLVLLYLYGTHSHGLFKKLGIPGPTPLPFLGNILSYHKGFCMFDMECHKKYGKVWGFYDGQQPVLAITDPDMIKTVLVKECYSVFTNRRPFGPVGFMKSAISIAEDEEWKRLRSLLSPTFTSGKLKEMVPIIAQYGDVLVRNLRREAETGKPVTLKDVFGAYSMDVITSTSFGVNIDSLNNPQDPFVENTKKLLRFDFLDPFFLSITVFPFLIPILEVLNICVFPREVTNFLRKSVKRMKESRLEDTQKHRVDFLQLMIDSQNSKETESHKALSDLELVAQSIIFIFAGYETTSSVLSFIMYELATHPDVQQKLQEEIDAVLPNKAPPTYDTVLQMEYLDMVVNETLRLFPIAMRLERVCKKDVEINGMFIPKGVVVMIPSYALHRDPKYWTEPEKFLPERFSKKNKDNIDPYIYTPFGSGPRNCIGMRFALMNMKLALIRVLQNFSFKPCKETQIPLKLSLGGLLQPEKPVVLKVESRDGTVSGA"}, "[3]": {"biological_target": "T2, Rac GTPase-activating protein 1 (Homo sapiens, UniProt Q9H0H5)", "T2 sequence (Q9H0H5 whole entry)": "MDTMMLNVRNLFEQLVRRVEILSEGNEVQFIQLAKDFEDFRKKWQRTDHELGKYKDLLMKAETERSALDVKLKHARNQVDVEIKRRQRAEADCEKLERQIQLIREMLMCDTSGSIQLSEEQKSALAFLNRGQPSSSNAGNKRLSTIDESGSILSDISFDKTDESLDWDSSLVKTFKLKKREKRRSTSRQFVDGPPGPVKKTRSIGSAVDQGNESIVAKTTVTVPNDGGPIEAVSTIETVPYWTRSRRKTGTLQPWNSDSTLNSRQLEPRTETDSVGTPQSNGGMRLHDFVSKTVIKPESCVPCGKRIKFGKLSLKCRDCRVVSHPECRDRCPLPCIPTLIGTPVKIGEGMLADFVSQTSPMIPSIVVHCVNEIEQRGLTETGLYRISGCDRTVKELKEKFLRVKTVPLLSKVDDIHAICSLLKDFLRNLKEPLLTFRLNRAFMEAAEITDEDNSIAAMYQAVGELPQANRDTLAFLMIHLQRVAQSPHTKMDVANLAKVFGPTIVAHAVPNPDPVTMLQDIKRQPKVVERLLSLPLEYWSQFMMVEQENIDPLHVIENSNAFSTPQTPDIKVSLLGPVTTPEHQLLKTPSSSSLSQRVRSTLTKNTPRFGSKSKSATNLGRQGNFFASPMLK", "assay": "blockers of MgcRacGAP-driven Rac1 GTP hydrolysis – biochemical, ADP Hunter fluorescence, primary and confirmatory, confirmation (AID 624330)", "assay_type": "functional"}, "[4]": {"assay": "Luminescence Cell-Based Dose Retest to Confirm Inhibitors of Cancer Stem Cells. [Related pubchem assays (depositor defined):AID2717, AID2721]", "assay_type": "functional", "conditions": "Homo sapiens"}}, "note": "Calls of active or inactive are those of the source."}
{"compound": "S=C(NCCN1CCOCC1)Nc1ccc(-c2nc3ccccc3[nH]2)cc1", "values": [{"measurement": "EC50", "setting": "[1]", "result": "16.3 µM (active)"}, {"measurement": "EC50", "setting": "H4", "result": "16.5 µM (active)"}, {"measurement": "EC50", "setting": "[2]", "result": "10.7 µM (active)"}]}
{"compound": "O=C(Nc1ccnc(-c2cccnc2)n1)c1ccccc1Cl", "values": [{"measurement": "AC50", "setting": "Cytochrome P450 2D6", "result": "11.2 µM (inconclusive)"}, {"measurement": "AC50", "setting": "Cytochrome P450 2C19", "result": "14.1 µM (inconclusive)"}]}
{"compound": "Oc1c2c(nc3cc(-c4ccccc4Cl)nn13)CCS2", "values": [{"measurement": "EC50", "setting": "H4", "result": "21.7 µM (active)"}, {"measurement": "EC50", "setting": "[2]", "result": "2.34 µM (active)"}]}
{"compound": "CCCCOc1ccc(-c2nnn(CC(=O)NCc3ccco3)n2)cc1", "values": [{"measurement": "EC50", "setting": "[1]", "result": "> 120 µM (not active)"}, {"measurement": "EC50", "setting": "H4", "result": "10 µM (active)"}, {"measurement": "EC50", "setting": "[2]", "result": "24.3 µM (active)"}]}
{"compound": "Cc1ccc(C2CC(C(F)(F)F)n3nc(C(=O)NCCN4CCOCC4)cc3N2)cc1", "note": "(stereo not drawn)", "values": [{"measurement": "AC50", "setting": "Cytochrome P450 1A2", "result": "1 µM (inconclusive)"}, {"measurement": "AC50", "setting": "Cytochrome P450 2C9", "result": "12.6 µM (inconclusive)"}]}
{"compound": "CC1Cc2ccccc2N1C(=O)CSc1nnnn1C(C)C", "note": "(stereo not drawn)", "values": [{"measurement": "AC50", "setting": "Cytochrome P450 1A2", "result": "15.8 µM (inconclusive)"}, {"measurement": "AC50", "setting": "Cytochrome P450 2C9", "result": "14.1 µM (inconclusive)"}, {"measurement": "AC50", "setting": "Cytochrome P450 3A4", "result": "15.8 µM (inconclusive)"}]}
{"compound": "O=C(c1cc(-c2ccc3c(c2)OCO3)on1)N1CCN(c2ccccc2)CC1", "values": [{"measurement": "EC50", "setting": "[1]", "result": "0.793 µM (active)"}, {"measurement": "EC50", "setting": "H4", "result": "4.67 µM (active)"}, {"measurement": "EC50", "setting": "[2]", "result": "0.817 µM (active)"}]}
{"compound": "Clc1cccc(Cl)c1/C=C/c1cc[nH]n1", "values": [{"measurement": "EC50", "setting": "[1]", "result": "> 120 µM (not active)"}, {"measurement": "EC50", "setting": "H4", "result": "27 µM (active)"}, {"measurement": "EC50", "setting": "[2]", "result": "41.2 µM (active)"}]}
{"compound": "CC1CCc2c(nc3ncnn3c2NCCc2ccccc2F)C1", "note": "(stereo not drawn)", "values": [{"measurement": "EC50", "setting": "[1]", "result": "> 120 µM (not active)"}, {"measurement": "EC50", "setting": "H4", "result": "> 120 µM (not active)"}, {"measurement": "EC50", "setting": "[2]", "result": "> 120 µM (not active)"}]}
{"compound": "COc1ccc(C2=C/C(=C\\c3ccccc3OC(C)=O)C(=O)O2)cc1", "values": [{"measurement": "EC50", "setting": "[1]", "result": "18.6 µM (active)"}, {"measurement": "EC50", "setting": "H4", "result": "48.4 µM (active)"}, {"measurement": "EC50", "setting": "[2]", "result": "90 µM (active)"}]}
{"compound": "CCCOC(=O)c1c(NC(=O)/C=C/c2cnn(C)c2C)sc(C(=O)OCC)c1C", "values": [{"measurement": "AC50", "setting": "Cytochrome P450 1A2", "result": "17.8 µM (inconclusive)"}, {"measurement": "AC50", "setting": "Cytochrome P450 2C9", "result": "39.8 µM (inconclusive)"}, {"measurement": "AC50", "setting": "Cytochrome P450 2C19", "result": "10 µM (inconclusive)"}, {"measurement": "AC50", "setting": "Cytochrome P450 3A4", "result": "15.8 µM (inconclusive)"}]}
{"compound": "O=C(NC(=S)Nc1ccc(O)cc1)C1CCCC1", "values": [{"measurement": "IC50", "setting": "[3]", "result": "29.6 µM (active)"}]}
{"compound": "CC(=O)Oc1ccc(C#C/C=C2\\c3ccccc3C(=O)N2c2ccccc2)cc1", "values": [{"measurement": "AC50", "setting": "[4]", "result": "2.25 µM (active)"}]}
{"compound": "COC(=O)c1cc(Br)c(=O)n(CCN2CCCC2)c1", "values": [{"measurement": "AC50", "setting": "Cytochrome P450 1A2", "result": "12.6 µM (inconclusive)"}, {"measurement": "AC50", "setting": "Cytochrome P450 2D6", "result": "17.8 µM (inconclusive)"}, {"measurement": "AC50", "setting": "Cytochrome P450 2C9", "result": "39.8 µM (inconclusive)"}, {"measurement": "AC50", "setting": "Cytochrome P450 2C19", "result": "39.8 µM (inconclusive)"}]}
{"compound": "CC1CCCCC12NC(=O)N(CC(=O)NC(=O)Nc1ccc3c(c1)OCCO3)C2=O", "note": "(stereo not drawn)", "values": [{"measurement": "EC50", "setting": "[1]", "result": "0.111 µM (active)"}, {"measurement": "EC50", "setting": "H4", "result": "0.117 µM (active)"}, {"measurement": "EC50", "setting": "[2]", "result": "0.483 µM (active)"}]}
{"compound": "c1nc(NC2CC2)c2cc(-c3ccoc3)ccc2n1", "values": [{"measurement": "AC50", "setting": "Cytochrome P450 2D6", "result": "39.8 µM (inconclusive)"}, {"measurement": "AC50", "setting": "Cytochrome P450 2C19", "result": "20 µM (inconclusive)"}, {"measurement": "AC50", "setting": "Cytochrome P450 3A4", "result": "5.01 µM (inconclusive)"}]}
{"compound": "OCCNCCSc1nc(C2CCCCC2)n(-c2ccccc2Cl)n1", "values": [{"measurement": "IC50", "setting": "[3]", "result": "120 µM (active)"}]}
{"compound": "COC(=O)N1CCC[C@@]2(CCN(C(=O)Nc3cccc(F)c3)C2)C1", "values": [{"measurement": "AC50", "setting": "Cytochrome P450 1A2", "result": "15.8 µM (inconclusive)"}, {"measurement": "AC50", "setting": "Cytochrome P450 2C9", "result": "39.8 µM (inconclusive)"}, {"measurement": "AC50", "setting": "Cytochrome P450 3A4", "result": "12.6 µM (inconclusive)"}]}
{"compound": "O=C(CCCCn1c(=S)[nH]c2ccsc2c1=O)NCc1ccco1", "values": [{"measurement": "AC50", "setting": "Cytochrome P450 2D6", "result": "39.8 µM (inconclusive)"}]}
{"compound": "Cc1ccc(C(=O)CSC2=C(C#N)C(c3ccco3)C3=C(O)CC(C)(C)CC3=N2)cc1", "note": "(stereo not drawn)", "values": [{"measurement": "AC50", "setting": "[4]", "result": "2.49 µM (active)"}]}
{"compound": "O=C(CCc1ccccc1)Nc1ccc(Cl)cn1", "values": [{"measurement": "EC50", "setting": "[1]", "result": "> 120 µM (not active)"}, {"measurement": "EC50", "setting": "H4", "result": "19.8 µM (active)"}, {"measurement": "EC50", "setting": "[2]", "result": "1.18 µM (active)"}]}
{"compound": "O=C(O)C1CSC(c2ccco2)N1", "note": "(stereo not drawn)", "values": [{"measurement": "IC50", "setting": "[3]", "result": "70.6 µM (active)"}]}
{"compound": "O=C(NCCN1CCOCC1)c1ccc2ccccc2c1", "values": [{"measurement": "AC50", "setting": "Cytochrome P450 1A2", "result": "31.6 µM (inconclusive)"}, {"measurement": "AC50", "setting": "Cytochrome P450 2D6", "result": "15.8 µM (inconclusive)"}]}
{"compound": "CC/C(=N\\O)c1ccc(O)c(OC)c1", "values": [{"measurement": "IC50", "setting": "[3]", "result": "45.2 µM (active)"}]}
{"compound": "Cc1c(C)n(CCc2ccccc2)c2ncnc(NCCCN(C)C)c12", "values": [{"measurement": "AC50", "setting": "[4]", "result": "3.51 µM (active)"}]}
{"compound": "CC(/C=N/NC(=O)Cc1cccs1)=C\\c1ccco1", "values": [{"measurement": "AC50", "setting": "Cytochrome P450 2D6", "result": "14.1 µM (inconclusive)"}]}
